Measured values taken from BindingDB's records for doi:10.1016/j.bmcl.2003.11.081 (Cubist Pharmaceuticals, 2004).

Assays:
[1] = target: Phenylalanine--tRNA ligase (Enterococcus faecalis); test: Inhibitory activity against phenylalanyl-tRNA synthetase from Enterococcus faecalis
[2] = target: Phenylalanine--tRNA ligase (Staphylococcus aureus); test: Inhibitory activity against phenylalanyl-tRNA synthetase from Staphylococcus aureus
[3] = target: T1, Phenylalanine--tRNA ligase, mitochondrial (Homo sapiens, UniProt O95363); test: ChEBML_154873
T1 sequence (O95363 whole entry): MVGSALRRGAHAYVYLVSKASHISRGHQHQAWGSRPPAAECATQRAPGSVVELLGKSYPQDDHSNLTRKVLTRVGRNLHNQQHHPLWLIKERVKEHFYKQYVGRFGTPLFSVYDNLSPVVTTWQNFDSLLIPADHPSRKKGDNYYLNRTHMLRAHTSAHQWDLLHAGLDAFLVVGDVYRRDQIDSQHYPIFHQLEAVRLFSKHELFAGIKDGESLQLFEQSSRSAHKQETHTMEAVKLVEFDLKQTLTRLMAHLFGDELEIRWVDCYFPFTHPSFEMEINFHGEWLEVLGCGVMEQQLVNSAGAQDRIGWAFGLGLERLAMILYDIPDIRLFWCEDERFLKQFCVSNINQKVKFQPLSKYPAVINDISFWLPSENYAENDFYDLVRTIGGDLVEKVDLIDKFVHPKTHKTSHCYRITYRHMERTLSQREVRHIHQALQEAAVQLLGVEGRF
Experimental: (§1) Inhibitory activity against human phenylalanyl-tRNA synthetase was determined

[4] = target: Phenylalanine--tRNA ligase (Enterococcus faecalis); test: Inhibitory activity against phenylalanyl-tRNA synthetase from Enterococcus faecalis; remark: listed apart in the source
[5] = target: T1, Phenylalanine--tRNA ligase, mitochondrial; test: as §1

O=C1c2ccccc2C(=O)C12OC(c1ccccc1)c1c2c(O)n(-c2ccc(Cl)c(C(F)(F)F)c2)c1O [5-(4-chloro-3-trifluoromethylphenyl)-3-phenyl-(3R,3aS,6aR)-spiro[perhydrofuro[3,4-c]pyrrole-1,2'-(2',3'-dihydro-1'H-indene)]-1',3',4,6-tetraone]
IC50 [1]: 32 µM | IC50 [2]: 45 µM

Cc1ccc(C2OC3(C(=O)c4ccccc4C3=O)c3c2c(O)n(-c2ccc4c(c2)OCO4)c3O)cc1 [5-benzo[d][1,3]dioxol-5-yl-3-(4-methylphenyl)-(3R,3aS,6aR)-spiro[perhydrofuro[3,4-c]pyrrole-1,2'-(2',3'-dihydro-1'H-indene)]-1',3',4,6-tetraone]
IC50 [3]: > 100 µM | IC50 [1]: > 100 µM | IC50 [4]: > 100 µM

Oc1c2c(c(O)n1-c1ccc(Cl)c(Cl)c1)C1(Cc3ccccc3C1)NC2c1ccccc1 (stereo unspecified)
IC50 [3]: > 100 µM | IC50 [5]: > 100 µM | IC50 [1]: > 100 µM | IC50 [4]: > 100 µM | IC50 [2]: > 100 µM

COC(=O)C1NC(c2ccccc2)c2c1c(O)n(-c1ccc(Cl)c(Cl)c1)c2O [methyl 5-(3,4-dichlorophenyl)-4,6-dioxo-3-phenyl-(3R,3aS,6aR)-perhydropyrrolo[3,4-c]pyrrole-1-carboxylate]
IC50 [3]: > 100 µM | IC50 [1]: > 100 µM | IC50 [4]: > 100 µM

O=C1c2ccccc2C(=O)C12OC(c1ccccc1)c1c2c(O)n(-c2ccc([N+](=O)[O-])cc2)c1O [5-(4-nitrophenyl)-3-phenyl-(3R,3aS,6aR)-spiro[perhydrofuro[3,4-c]pyrrole-1,2'-(2',3'-dihydro-1'H-indene)]-1',3',4,6-tetraone]
IC50 [3]: > 100 µM | IC50 [1]: > 100 µM | IC50 [2]: > 100 µM
